From patent US8119683B2, “Aryl substituted sulfonamide compounds and their use as anticancer agents” (Taipei Medical University, priority 2009, dated 2012) come the findings set out here.

Like-named read-outs stand apart in the source and are kept apart here.

Data set [1] concerns Human oral epidermoid carcinoma KB cells. Kind of data set: Cell growth inhibition assay (methylene blue dye), KB cells. In kind it is cell-based. Conditions: KB cells. The protocol: (§1) Anticancer activities of the aryl substituted sulfonamide compounds synthesized in the above examples were evaluated by testing their inhibitory effects on mammalian cancer cell growth.
(§2) Human oral epidermoid carcinoma KB cells, non small cell lung carcinoma H460 cells, colorectal carcinoma HT29 cells, and stomach carcinoma MKN45 cells were maintained in RPMI-1640 medium supplied with 5% fetal bovine serum. The cells were treated with the test compound at various concentrations for 72 h.

Data set [2] has as its system non small cell lung carcinoma H460 cells. Kind of data set: Cell growth inhibition assay (methylene blue dye), H460 cells. In kind it is cell-based. Conditions: Homo sapiens, NCI-H460, 72 h, read-out: Cell type (IC50 ± SD, nM) H460 (lung). The protocol: as §1, §2
Data set [3] has as its system stomach carcinoma MKN45 cells. Kind of data set: Cell growth inhibition assay (methylene blue dye), MKN45 cells. The format is cell-based. Particulars: Homo sapiens, MKN-45, 72 h, read-out: Cell type (IC50 ± SD, nM) MKN45 (stomach). The protocol:
as §1, §2

The next data set deals with KB-VIN10 cells. Kind of data set: Cell growth inhibition assay on multidrug resistant KB-VIN10 cells. In kind it is cell-based. Conditions: Homo sapiens; KB-VIN10 (P-gp170/MDR overexpression), 72 h, methylene blue; read-out: IC50, growth inhibition of KB-VIN10 cells. The procedure:
Cell in logarithmic phase were cultured at a density of 5000 cells/mL/well in a 24-well plate. KB-VIN10 cells were cultured in a medium free of test compound for 3 days prior to use. The cells were treated with the test compound at various concentrations for 72 h. The effect of the test compound on cell growth was evaluated using the methylene blue dye assay. […] KB-CPT100 and KB-CPT300 cells were generated by camptothecin-driven selection. […] (See Liou, J. P. et al J. Med. Chem. 2004, 47, 4247-4257 and Kuo, C. C. et al. Cancer Res. 2004, 64, 4621-4628.) Anticancer activities of the aryl substituted sulfonamide compounds synthesized in the above examples were evaluated by testing their inhibitory effects on these drug-resistant cell lines. Compound 24 was tested in this assay.

Where [4] appears, read: 72 h, methylene blue dye assay, read-out: Cell type (IC50 ± SD, nM) KB (oral).
The mark [5] stands for this setting: bands, read-out: IC50, inhibiting proliferation of KB cells (band).

Turning to `COc1ccc(S(=O)(=O)Nc2cccnc2Nc2ccc(O)cc2)cc1` [ABT-751, reference compound], the IC50 in data set [1] (setting [4]) worked out at 251 ± 65 nM; in data set [2] it was 218 ± 4 nM; in data set [3] it was 166 ± 8 nM; with KB-VIN10 cells, 385 nM.

For the compound `COc1ccc(S(=O)(=O)N2CCc3cccc(-c4ccc(C#N)cc4)c32)cc1` [Compound 17, 4-[1-(4-methoxy-benzenesulfonyl)-2,3-dihydro-1H-indol-7-yl]-benzonitrile], the melting point fell in the range of 157.2 to 158.9 °C. The IC50 in data set [1] (setting [4]) was 31.1 ± 5.4 nM. The IC50 in data set [1] (setting [5]) fell in the range of 1 to 99 nM. The IC50 in data set [2] came out at 29.5 ± 14.8 nM. Also, the IC50 in data set [3] came out at 17.2 ± 8.6 nM.

`COc1ccc(S(=O)(=O)N2CCc3cccc(-c4ccc([N+](=O)[O-])cc4)c32)cc1` [Compound 37, 1-(4-methoxy-benzenesulfonyl)-7-(4-nitro-phenyl)-2,3-dihydro-1H-indole]: the melting point was 177.1 to 178.4 °C. In addition, in data set [1] (setting [5]), the IC50 lay within 1 to 99 nM.

`COc1ccc(S(=O)(=O)N2CCc3cccc(-c4ccc(C=O)cc4)c32)cc1` [Compound 38, 4-[1-(4-methoxy-benzenesulfonyl)-2,3-dihydro-1H-indol-7-yl]-benzaldehyde] gave a melting point of 152 to 153 °C. In addition, in data set [1] (setting [5]), the IC50 was 1 to 99 nM.

With `COc1ccc(S(=O)(=O)N2CCc3cccc(-c4ccc(CN(C)C)cc4)c32)cc1` [Compound 39, {4-[1-(4-methoxy-benzenesulfonyl)-2,3-dihydro-1H-indol-7-yl]-benzyl}-dimethyl-amine], the melting point lay within 165 to 166 °C. Further, the IC50 in data set [1] (bound stated, read-out: IC50, inhibiting proliferation of KB cells (bound)) was at least 4000 nM.

Take `COc1ccc(S(=O)(=O)N2CCc3cccc(-c4ccc(C(=O)O)cc4)c32)cc1` [Compound 40, 4-[1-(4-methoxy-benzenesulfonyl)-2,3-dihydro-1H-indol-7-yl]-benzoic acid]: the melting point lay within 130.3 to 132.1 °C. Further, the IC50 in data set [1] (setting [5]) is 100 to 700 nM.

What is called melting point is the temperature of the solid-liquid transition.
